Patent publication US20100144733A1, “Compounds, compositions and methods comprising heteroaromatic derivatives” (Institute for OneWorld Health, priority 2008, published 2010)

What follows are molecules tested against T1, CFTR (Homo sapiens, UniProt P13569) (assay: T84 assay (FLIPR membrane potential dye, forskolin/IBMX-stimulated CFTR channel activity)). Details: imidazole and triazole-containing compounds (Tables 13, 14, 14′), read-out: IC50 (μM) (T84 assay).
T1 construct: endogenous in cells; host or cells: T84 human colonic cells (ECACC)
Format: cell-based
Description: (§1) For example, Human colonic T84 cells can be acquired from the European Collection of Cell Cultures (ECACC) and grown in standard culture conditions as described by the supplier. On the day before assay 25,000 T84 cells per well are plated into standard black walled, clear bottom 384-well assay plates in standard growth medium consisting of DMEM:F12 with 10% FBS and incubated overnight. On the day of the assay the plates are washed using a standard assay buffer (HBSS with 10 mM Hepes) and incubated for 15 minutes in serum free cell culture medium before the addition of a commercially available membrane potential sensitive fluorescent dye (FLIPRRed membrane potential dye, Molecular Devices Corporation). T84 cells are incubated with the FLIPRRed membrane potential dye for 45 minutes in the presence and absence of test compound before being transferred to a commercially available fluorescence imaging plate reader (FLIPR384, Molecular Devices Corporation). Fluorescence levels are monitored continuously every second for 150 seconds; after an initial 10 second baseline, CFTR channel activity is stimulated through the addition of 10 μM forskolin in the presence of 100 μM of the phosphodiesterase inhibitor iso-butyl-methylxanthine (IBMX). Addition of the forskolin leads to the activation of intracellular adenylyl cylase 1, elevating cAMP levels and results in the phosphorylation and opening of CFTR anion channels. CFTR channel opening causes chloride ion efflux and subsequent depolarization of the cells, which is measured by an increase in fluorescence. CFTR inihibitor compounds prevent cell depolarization and the associatred increase in fluorescence.
as §1, with “Human colonic” for “For example, Human colonic”, “T84 cells are acquired from” for “T84 cells can be acquired from”, “(ECACC) and are grown in” for “(ECACC) and grown in”, “10 μM Forskolin in the” for “10 μM forskolin in the”, “fluorescence. CFTR inhibitor compounds prevent” for “fluorescence. CFTR inihibitor compounds prevent”, “and the associated increase in” for “and the associatred increase in”

T1 sequence (P13569 whole entry): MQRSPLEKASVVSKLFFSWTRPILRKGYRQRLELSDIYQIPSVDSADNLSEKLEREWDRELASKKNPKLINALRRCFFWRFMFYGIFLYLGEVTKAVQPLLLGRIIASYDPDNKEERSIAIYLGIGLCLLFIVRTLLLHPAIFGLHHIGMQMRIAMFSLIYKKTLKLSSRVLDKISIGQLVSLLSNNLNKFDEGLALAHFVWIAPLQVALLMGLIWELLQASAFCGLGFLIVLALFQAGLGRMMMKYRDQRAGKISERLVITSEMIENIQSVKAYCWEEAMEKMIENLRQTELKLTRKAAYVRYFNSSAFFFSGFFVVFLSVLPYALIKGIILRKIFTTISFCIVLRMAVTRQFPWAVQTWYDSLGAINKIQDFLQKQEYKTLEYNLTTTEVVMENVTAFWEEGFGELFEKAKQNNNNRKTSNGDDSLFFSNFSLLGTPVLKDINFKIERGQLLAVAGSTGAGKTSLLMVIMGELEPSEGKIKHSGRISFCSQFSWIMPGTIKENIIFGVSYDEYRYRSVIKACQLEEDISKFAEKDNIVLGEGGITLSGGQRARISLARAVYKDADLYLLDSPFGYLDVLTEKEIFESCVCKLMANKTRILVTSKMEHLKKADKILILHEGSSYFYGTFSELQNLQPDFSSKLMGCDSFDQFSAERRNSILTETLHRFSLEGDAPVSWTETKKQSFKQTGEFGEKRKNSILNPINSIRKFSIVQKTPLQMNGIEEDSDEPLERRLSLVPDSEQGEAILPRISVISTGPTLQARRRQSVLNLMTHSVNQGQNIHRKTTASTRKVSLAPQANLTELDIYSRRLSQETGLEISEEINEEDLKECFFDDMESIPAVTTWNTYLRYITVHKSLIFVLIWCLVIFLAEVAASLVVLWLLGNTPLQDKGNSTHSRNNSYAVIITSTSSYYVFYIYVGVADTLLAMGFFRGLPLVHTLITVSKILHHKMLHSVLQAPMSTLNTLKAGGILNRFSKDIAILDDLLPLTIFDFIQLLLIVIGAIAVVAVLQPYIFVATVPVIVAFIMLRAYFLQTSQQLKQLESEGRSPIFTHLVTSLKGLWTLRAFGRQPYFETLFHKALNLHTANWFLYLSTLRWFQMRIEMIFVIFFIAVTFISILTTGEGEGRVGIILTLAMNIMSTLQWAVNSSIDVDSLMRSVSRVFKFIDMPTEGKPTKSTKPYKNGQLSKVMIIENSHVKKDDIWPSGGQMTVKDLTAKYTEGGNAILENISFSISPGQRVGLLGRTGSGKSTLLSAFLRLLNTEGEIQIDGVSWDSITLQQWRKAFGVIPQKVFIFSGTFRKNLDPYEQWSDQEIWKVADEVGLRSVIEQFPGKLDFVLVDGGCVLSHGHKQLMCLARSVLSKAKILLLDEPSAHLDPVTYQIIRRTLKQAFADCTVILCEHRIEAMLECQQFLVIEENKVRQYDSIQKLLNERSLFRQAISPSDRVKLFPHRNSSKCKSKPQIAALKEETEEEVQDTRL

IC50 [µM]	SMILES
3.7	O=C(NCc1cccc(-c2ccccc2)c1)c1ncn(-c2cc(Cl)c(O)c(Cl)c2)n1 [25i, N-(biphenyl-3-ylmethyl)-1-(3,5-dichloro-4-hydroxyphenyl)-1H-1,2,4-triazole-3-carboxamide]
3.92	CN(C)c1cccc(CNC(=O)c2ncn(-c3cc(Cl)c(O)c(Cl)c3)n2)c1 [26i, 1-(3,5-dichloro-4-hydroxyphenyl)-N-(3-(dimethylamino)benzyl)-1H-1,2,4-triazole-3-carboxamide]
24.4	O=C(NCc1cc(Cl)ccc1F)c1ncn(-c2cc(Cl)c(O)c(Cl)c2)n1 [27i, N-(5-chloro-2-fluorobenzyl)-1-(3,5-dichloro-4-hydroxyphenyl)-1H-1,2,4-triazole-3-carboxamide]
16.8	CC(C)Oc1ccc(CNC(=O)c2ncn(-c3cc(Cl)c(O)c(Cl)c3)n2)cc1 [28i, 1-(3,5-dichloro-4-hydroxyphenyl)-N-(4-isopropoxybenzyl)-1H-1,2,4-triazole-3-carboxamide]
7.52	O=C(NCc1ccc(F)c(C(F)(F)F)c1)c1ncn(-c2cc(Cl)c(O)c(Cl)c2)n1 [29i, 1-(3,5-dichloro-4-hydroxyphenyl)-N-(4-fluoro-3-(trifluoromethyl)benzyl)-1H-1,2,4-triazole-3-carboxamide]
27.8	O=C(NCc1ccccc1Cl)c1ncn(-c2cc(Cl)c(O)c(Cl)c2)n1 [30i, N-(2-chlorobenzyl)-1-(3,5-dichloro-4-hydroxyphenyl)-1H-1,2,4-triazole-3-carboxamide]
10.3	CC(NC(=O)c1ncn(-c2cc(Cl)c(O)c(Cl)c2)n1)c1ccc(Br)cc1 (stereo not drawn) [32i, N-(1-(4-bromophenyl)ethyl)-1-(3,5-dichloro-4-hydroxyphenyl)-1H-1,2,4-triazole-3-carboxamide]

The next lines start with the molecule.

SMILES	IC50 [µM]
CN(C(=O)c1ncn(-c2cc(Cl)c(O)c(Cl)c2)n1)c1ccc(OC(F)(F)F)cc1 [21i]	15.7
CN(Cc1ccc(Cl)cc1)C(=O)c1ncn(-c2cc(Cl)c(O)c(Cl)c2)n1 [22i, N-(4-chlorobenzyl)-1-(3,5-dichloro-4-hydroxyphenyl)-N-methyl-1H-1,2,4-triazole-3-carboxamide]	18.1

Same assay, conditions: isoxazole-containing compounds (Table 10, 10′, 11, 11′), read-out: IC50

IC50 [µM]	SMILES
7.4	O=C(c1cc(-c2cc(Br)c(O)c(Br)c2)on1)N1CCN(c2ccc(Cl)c(Cl)c2)CC1 [10g, (5-(3,5-dibromo-4-hydroxyphenyl)isoxazol-3-yl)(4-(3,4-dichlorophenyl)piperazin-1-yl)methanone]
14.2	COc1ccccc1N1CCN(C(=O)c2cc(-c3cc(Br)c(O)c(Br)c3)on2)CC1 [11g, (5-(3,5-dibromo-4-hydroxyphenyl)isoxazol-3-yl)(4(2-methoxyphenyl)piperazin-1-yl)methanone]
6.51	O=C(c1cc(-c2cc(Cl)c(O)c(Cl)c2)on1)N1CCC(Cc2ccccc2)CC1 [12g, (4-benzylpiperidin-1-yl)(5-(3,5-dichloro-4-hydroxyphenyl)isoxazol-3-yl)methanone]

Same assay, conditions: oxadiazole-containing compounds (a series), average of at least 2 runs unless annotated n = 1, read-out: IC50

IC50 [µM]	SMILES
13.1	O=C(Nc1cccc(OC(F)(F)F)c1)c1nc(-c2cc(Br)c(O)c(Br)c2)no1 [24a, 3-(3,5-Dibromo-4-hydroxyphenyl)-N-(3-(trifluoromethoxy)phenyl)-1,2,4-oxadiazole-5-carboxamide]
10.9	CC(C)(C)c1ccc(N2CCN(C(=O)c3nc(-c4cc(Br)c(O)c(Br)c4)no3)CC2)cc1 [25a, (4-(4-tert-butylphenyl)piperazin-1-yl)(3-(3,5-dibromo-4-hydroxyphenyl)-1,2,4-oxadiazol-5-y1)methanone]
14.5	COc1ccccc1N1CCN(C(=O)c2nc(-c3cc(Br)c(O)c(Br)c3)no2)CC1 [26a, (3-(3,5-dibromo-4-hydroxyphenyl)-1,2,4-oxadiazol-5-yl)(4-(2-methoxyphenyl)piperazin-1-yl)methanone]
14.6	O=C(NCc1cccc(C(F)(F)F)c1)c1nc(-c2cc(Br)c(O)c(Br)c2)no1 [27a, 3-(3,5-dibromo-4-hydroxyphenyl)-N-(3-(trifluoromethyl)benzyl)-1,2,4-oxadiazole-5-carboxamide]
15.3	CN(Cc1ccccc1)C(=O)c1nc(-c2cc(Br)c(O)c(Br)c2)no1 [28a, N-benzyl-3-(3,5-dibromo-4-hydroxyphenyl)-N-methyl-1,2,4-oxadiazole-5-carboxamide]
13.8	O=C(NCc1ccc(OC(F)(F)F)cc1)c1nc(-c2cc(Br)c(O)c(Br)c2)no1 [29a, 3-(3,5-Dibromo-4-hydroxyphenyl)-N-(4-(trifluoromethoxy)benzyl)-1,2,4-oxadiazole-5-carboxamide]
16.2	O=C(NCc1ccc(Cl)c(C(F)(F)F)c1)c1nc(-c2cc(Br)c(O)c(Br)c2)no1 [30a, N-(4-chloro-3-(trifluoromethyl)benzyl)-3-(3,5-dibromo-4-hydroxyphenyl)-1,2,4-oxadiazole-5-carboxamide]
17.1	O=C(c1nc(-c2cc(Br)c(O)c(Br)c2)no1)N1CCN(c2ccc(F)cc2F)CC1 [31a]
17.2	O=C(c1nc(-c2cc(Br)c(O)c(Br)c2)no1)N1CCN(c2cccc(F)c2)CC1 [32a, (3-(3,5-dibromo-4-hydroxyphenyl)-1,2,4-oxadiazol-5-yl)(4-(3-fluorophenyl)piperazin-1-yl)methanone]

The remaining lines, values behind:

SMILES	IC50 [µM]
CN(Cc1cccc(C(F)(F)F)c1)C(=O)c1nc(-c2cc(Br)c(O)c(Br)c2)no1 [11a, 3-(3,5-dibromo-4-hydroxyphenyl)-N-methyl-N-(3-(trifluoromethyl)benzyl)-1,2,4-oxadiazole-5-carboxamide]	7.74
O=C(NCc1cccc(OC(F)(F)F)c1)c1nc(-c2cc(Br)c(O)c(Br)c2)no1 [12a, 3-(3,5-dibromo-4-hydroxyphenyl)-N-(3-(trifluoromethoxy)benzyl)-1,2,4-oxadiazole-5-carboxamide]	7.89
O=C(NCCC(c1ccccc1)c1ccccc1)c1nc(-c2cc(Br)c(O)c(Br)c2)no1 [14a, 3-(3,5-dibromo-4-hydroxyphenyl)-N-(3,3-diphenylpropyl)-1,2,4-oxadiazole-5-carboxamide]	8.92
O=C(NC(c1ccccc1)c1ccccc1)c1nc(-c2cc(Cl)c(O)c(Cl)c2)no1 [15a, N-benzhydryl-3-(3,5-dichloro-4-hydroxyphenyl)-1,2,4-oxadiazole-5-carboxamide]	9
O=C(c1nc(-c2cc(Br)c(O)c(Br)c2)no1)N1CCN(c2ccccc2)CC1 [16a, (3-(3,5-dibromo-4-hydroxyphenyl)-1,2,4-oxadiazol-5-yl)(4-phenylpiperazin-1-yl)methanone]	9.13
O=C(c1nc(-c2cc(Br)c(O)c(Br)c2)no1)N1CCC(Cc2ccccc2)CC1 [18a, (4-benzylpiperidin-1-yl)(3-(3,5-dibromo-4-hydroxyphenyl)-1,2,4-oxadiazol-5-yl)methanone]	12.3
O=C(c1nc(-c2cc(Br)c(O)c(Br)c2)no1)N1CCN(c2ccc(Cl)cc2F)CC1 [19a, (4-(4-chloro-2-fluorophenyl)piperazin-1-yl)(3-(3,5-dibromo-4-hydroxyphenyl)-1,2,4-oxadiazol-5-yl)methanone]	7.1
O=C(NCc1cc(C(F)(F)F)cc(C(F)(F)F)c1)c1nc(-c2cc(Br)c(O)c(Br)c2)no1 [20a, N-(3,5-bis(trifluoromethyl)benzyl)-3-(3,5-dibromo-4-hydroxyphenyl)-1,2,4-oxadiazole-5-carboxamide]	10.5
O=C(c1nc(-c2cc(Br)c(O)c(Br)c2)no1)N(Cc1cccc(C(F)(F)F)c1)Cc1cccc(C(F)(F)F)c1 [21a, 3-(3,5-dibromo-4-hydroxyphenyl)-N,N-bis(3-(trifluoromethyl)benzyl)-1,2,4-oxadiazole-5-carboxamide]	10.9
O=C(NCc1ccc(Cl)c(Cl)c1)c1nc(-c2cc(Br)c(O)c(Br)c2)no1 [22a, 3-(3,5-dibromo-4-hydroxyphenyl)-N-(3,4-dichlorobenzyl)-1,2,4-oxadiazole-5-carboxamide]	11
O=C(NCc1cccc(F)c1)c1nc(-c2cc(Br)c(O)c(Br)c2)no1 [23a, 3-(3,5-dibromo-4-hydroxyphenyl)-N-(3-fluorobenzyl)-1,2,4-oxadiazole-5-carboxamide]	12.7

Same assay, conditions: thiadiazole-containing compounds (Table 12), read-out: IC50

IC50 [µM]	SMILES
20.8	Oc1c(Cl)cc(-c2nnc(Oc3ccc(Oc4ccccc4)cc3)s2)cc1Cl [10h, 2,6-dichloro-4-(5-(4-phenoxyphenoxy)-1,3,4-thiadiazol-2-yl)phenol]
